Where “and” joins values, the source holds several entries; their conditions need not be identical. Equal entries are not always repeated. Where two headings read alike, the source gives them in different places.
Assays:
[1] = system: 60 cancer cell lines (NCI 60 cancer cell line series); experiment: NCI-DTP in vitro cancer screen, sulforhodamine B (SRB) growth inhibition, 48 hour exposure; assay type: cell-based, human
Method: Cancer Cell Line Preparation. Sixty cancer cell lines were obtained from the National Cancer Institute Developmental Therapeutics Program (NCI-DTP). Procedures for growing cells and testing compounds have been described previously (Scudiero et al., Cancer Res. 1988, 48:4827-4833; Stinson et al., Anticancer Res.; Myers et al., Electrophoresis 1997, 18:647-653). Cells are plated on day 0 at a density individualized for each cell line so that they will generally be sub-confluent at the end of the assay period. On day 1, a compound is added in the format for a duplicate-well, 5-dose, ten-fold interval dose response study.
No-drug, no-cell and no-growth controls are included. On day 3 the cells are processed for staining with sulforhodamine B (SRB), which reflects the amount of cell mass present at the end of a 48 hour exposure to the test agent. From dose response curves based on the SRB data, various parameters can be determined. The one used in the present study is the G15o, defined as the concentration of compound required to inhibit growth of the cell line by 50%. More precisely, the quantity used in the calculation to be described is the potency measure -log{GI50}.
Activity database (A). Table IA, consisting of the growth inhibition (GI5o) values for the 60 cell lines and 24 compounds, was created from the NCI-DTP in vitro cancer screen database. This subset of compounds was selected from the larger 23,000 compound database available from the DTP. The compounds were selected on the basis of their known mechanism of action and chemical structure. The average potency—log{GI50} was extracted from the comma-delimited text files available through the Web at http://www.nci.nih.gov/intra/lmp/jnwbio.htmrl. Subsequently, these log{GI5o} values were inspected manually and classified as indicating either Low, Medium or High sensitivity to each compound.

[2] = system: 60 cancer cell lines (NCI 60 cancer cell line series); conditions: cited from earlier work

## OC[C@H]1O[C@@H](n2cnc3c2N=CNC[C@H]3O)C[C@@H]1O [2′-deoxycoformycin]
[1]
  1 # of Low: 9
  2 # of Medium: 43
  3 # of High: 8
  classification of cell line as Low(1), Medium(2) or High(3) sensitivity to compound: 2 and 1 and 3
  sensitivity class Prostate PC-3(I) CL11001: 1
  sensitivity class Renal 786-O CL9018: 2
  sensitivity class Renal A498 CL9013: 2
  sensitivity class Renal ACHN CL9023: 2
  sensitivity class Renal CAKI-1 CL9015: 3
  sensitivity class Renal RXF-393 CL9016: 3
  sensitivity class Renal SN12C CL9008: 2
  sensitivity class Renal TK10 CL9024: 1
  sensitivity class Renal UO-31 CL9004: 2
  sensitivity class of the cell line to the compound (1 Low, 2 Medium, 3 High): 3 and 2
[1]; Colon SW-620 (CL4009)
  classification of cell line as Low(1), Medium(2) or High(3) sensitivity to compound: 2
[1]; Leukemia CCRF-CEM(I) (CL7003)
  classification of cell line as Low(1), Medium(2) or High(3) sensitivity to compound: 2
[1]; Leukemia HL-60(I) (CL7008)
  classification of cell line as Low(1), Medium(2) or High(3) sensitivity to compound: 2
[1]; Leukemia K562(I) CL7005
  classification of cell line as Low(1), Medium(2) or High(3) sensitivity to compound: 2
[1]; Leukemia MOLT-4 (CL7006)
  classification of cell line as Low(1), Medium(2) or High(3) sensitivity to compound: 2
[1]; Leukemia RPMI-8226(I) (CL7010)
  classification of cell line as Low(1), Medium(2) or High(3) sensitivity to compound: 2
[1]; Leukemia SR CL7019
  classification of cell line as Low(1), Medium(2) or High(3) sensitivity to compound: 3
[1]; Melanoma LOX IMVI CL10001
  classification of cell line as Low(1), Medium(2) or High(3) sensitivity to compound: 2
[1]; Melanoma M14 (CL10014)
  classification of cell line as Low(1), Medium(2) or High(3) sensitivity to compound: 2
[1]; Melanoma MALME-3M CL10002
  classification of cell line as Low(1), Medium(2) or High(3) sensitivity to compound: 2
[1]; cell line NSCLC NCI-H23(I), CL1001
  sensitivity class NSCLC NCI-H23(I) CL1001: 2
[1]; cell line NSCLC NCI-H332M, CL1017
  sensitivity class NSCLC NCI-H332M CL1017: 2
[1]; cell line NSCLC NCI-H460, CL1021
  sensitivity class NSCLC NCI-H460 CL1021: 2
[1]; cell line NSCLC NCI-H522, CL1003
  sensitivity class NSCLC NCI-H522 CL1003: 3
[1]; cell line Ovarian IGROV1, CL6010
  sensitivity class Ovarian IGROV1 CL6010: 2
[1]; cell line Ovarian OVCAR-3, CL6001
  sensitivity class Ovarian OVCAR-3 CL6001: 2
[1]; cell line Ovarian OVCAR-4, CL6002
  sensitivity class Ovarian OVCAR-4 CL6002: 2
[1]; cell line Ovarian OVCAR-5, CL6003
  sensitivity class Ovarian OVCAR-5 CL6003: 1
[1]; cell line Ovarian OVCAR-8, CL6005
  sensitivity class Ovarian OVCAR-8 CL6005: 2
[1]; cell line Ovarian SK-OV-3, CL6011
  sensitivity class Ovarian SK-OV-3 CL6011: 2
[1]; cell line Prostate DU-145, CL11003
  sensitivity class Prostate DU-145 CL11003: 3
[2]; Colon SW-620 (CL4009)
  -Log (GI50): 3.4
[2]; Leukemia CCRF-CEM(I) (CL7003)
  -Log (GI50): 3.4
[2]; Leukemia HL-60(I) (CL7008)
  -Log (GI50): 3.4
[2]; Leukemia K562(I) CL7005
  -Log (GI50): 3.3
[2]; Leukemia MOLT-4 (CL7006)
  -Log (GI50): 3.4
[2]; Leukemia RPMI-8226(I) (CL7010)
  -Log (GI50): 3.3
[2]; Leukemia SR CL7019
  -Log (GI50): 3.4
[2]; Melanoma LOX IMVI CL10001
  -Log (GI50): 3.3
[2]; Melanoma M14 (CL10014)
  -Log (GI50): 3.4
[2]; Melanoma MALME-3M CL10002
  -Log (GI50): 3.3
[2]
  -Log (GI50): 3.5
